Assays:
B16 melanoma 4A5 cells = assay: Theophylline-stimulated melanogenesis inhibition (melanin content); type: cell-based, murine; details: 72 h; for Inhibition (%) of melanogenesis / inhibition at 3000 µM: 3000 µM; for Inhibition (%) of melanogenesis / inhibition at 1000 µM / inhibition at 3000 µM / inhibition at 100 µM / inhibition at 300 µM / inhibition at 3 µM / inhibition at 10 µM / inhibition at 30 µM: theophylline-stimulated B16 4A5 cells; for inhibition at 1000 µM / inhibition at 3000 µM / IC50 / inhibition at 100 µM / inhibition at 300 µM / inhibition at 3 µM / inhibition at 10 µM / inhibition at 30 µM: Mus musculus; for IC50: theophylline (1 mM)-stimulated B16 melanoma 4A5 cells
Procedure: (§1) The effects on theophylline-stimulated melanogenesis and viability of B16 melanoma 4A5 cells were examined according to previously described protocols. Briefly, murine B16 melanoma 4A5 cells were seeded into 48-well plates in DMEM. After 24 h of culture, a test compound and theophylline (1 mM) were added and incubated for 72 h. The melanin content and cell viability were then measured. IC50 values were determined graphically.
Inhibition (%) was calculated using the following formula, where A and B indicate the optical density of the vehicle- and test compound-treated groups, respectively, and C indicates cell viability (%) (see below): Inhibition (%) = [(A − B)/A]/(C/100) × 100.

[1] = Cell viability of B16 melanoma 4A5 cells; type: cell-based, murine; details: mouse, B16 4A5 cells
Procedure: as §1

tyrosinase from mushroom = assay: Mushroom tyrosinase activity; type: biochemical
Procedure: Tyrosinase activities using L-tyrosine or L-DOPA as a substrate were determined according to the protocols described previously. Briefly, samples, L-tyrosine (2.5 mM, or L-DOPA, 3.0 mM), mushroom tyrosinase (46 units/mL), and phosphate buffer were mixed in a 96-well plate and incubated at 25 °C. (L-tyrosine; 30 min, L-DOPA; 5 min). The absorbance was then measured at 492 nm.

SMILES	IC50 (B16 melanoma 4A5 cells)	inhibition at 1000 µM (B16 melanoma 4A5 cells)	inhibition at 3000 µM (B16 melanoma 4A5 cells)	viability at 72 h, 1000 µM [1]	viability at 72 h, 3000 µM [1]	inhibition at 100 µM (B16 melanoma 4A5 cells)	inhibition at 300 µM (B16 melanoma 4A5 cells)	viability at 72 h, 100 µM [1]	viability at 72 h, 300 µM [1]	other results
O=C1O[C@H]([C@@H](O)CO)C(O)=C1O[C@H]1O[C@H](CO)[C@@H](O)[C@H](O)[C@H]1O [2-O-α-D-Glucopyranosyl-AsA, reference compound]	> 3000 µM	-8.9 ± 2.7%	15 ± 3.5%	107%	108%					Inhibition (%) of melanogenesis (B16 melanoma 4A5 cells): significantly inhibit melanogenesis
O=C1O[C@H]([C@H](O)CO)C(O)=C1O [Erythrobic acid, reference compound]		75.8 ± 4.2%	92.6 ± 15.3%	44.5%	29.8%	-22.9 ± 6.5%	-10.6 ± 4.8%	98.7%	94.8%	
O=C1O[C@H]([C@@H](O)CO)C(O)=C1OP(=O)(O)O [Magnesium L-ascorbyl-2-phosphate, reference compound]	> 3000 µM	2.1 ± 4.1%	14.5 ± 1.3%	126%	92.8%					Inhibition (%) of melanogenesis (B16 melanoma 4A5 cells): significantly inhibit melanogenesis
O=C1O[C@H]([C@@H](O)CO)C(OCC(O)CO)=C1O (stereo partly shown) [compound 1, 3-O-(2,3-dihydroxypropyl)-AsA]	> 3000 µM	-5 ± 2.9%	0.5 ± 2.5%	100%	108%	-11.8 ± 1.9%	-10.7 ± 1.1%	100%	96.8%	
CCOC1=C(OCC(O)CO)[C@@H]([C@@H](O)CO)OC1=O (stereo partly shown) [compound 2, 3-O-(2,3-dihydroxypropyl)-2-O-ethyl-AsA]	> 3000 µM	-8.9 ± 2%	40.4 ± 8.6%	101%	104%	-28.1 ± 3.2%	-2.8 ± 3.6%	101%	99.7%	
CCCOC1=C(OCC(O)CO)[C@@H]([C@@H](O)CO)OC1=O (stereo partly shown) [compound 3, 3-O-(2,3-dihydroxypropyl)-2-O-propyl-AsA]	> 3000 µM	2.5 ± 7.9%	35.9 ± 3.4%	94.5%	95%	-2.1 ± 5.3%	8.2 ± 3.2%	102%	98.2%	
O=C1O[C@H]([C@@H](O)CO)C(O)=C1OCC(O)CO (stereo partly shown) [compound 15, 2-O-(2,3-dihydroxypropyl)-AsA]	> 3000 µM	-2.3 ± 1.7%	-6.1 ± 2.7%	102%	107%	-9.7 ± 1.2%	-4.8 ± 1%	101%	102%	
CCOC1=C(OCC(O)CO)C(=O)O[C@@H]1[C@@H](O)CO (stereo partly shown) [compound 16, 2-O-(2,3-dihydroxypropyl)-3-O-ethyl-AsA]	> 3000 µM	12.1 ± 2.2%	42 ± 1.4%	95.9%	84%	-4.2 ± 2.3%	-5.4 ± 1.5%	105%	95.9%	
CCCOC1=C(OCC(O)CO)C(=O)O[C@@H]1[C@@H](O)CO (stereo partly shown) [compound 17, 2-O-(2,3-dihydroxypropyl)-3-O-propyl-AsA]	> 3000 µM	1.3 ± 4.2%	23.2 ± 5.6%	92%	82.9%	-5.9 ± 3.3%	-3.9 ± 4.1%	98.4%	95.6%	

Further lines, with some results ahead:

IC50 (B16 melanoma 4A5 cells)	SMILES	inhibition at 1000 µM (B16 melanoma 4A5 cells)	inhibition at 3000 µM (B16 melanoma 4A5 cells)	viability at 72 h, 1000 µM [1]	viability at 72 h, 3000 µM [1]	inhibition at 100 µM (B16 melanoma 4A5 cells)	inhibition at 300 µM (B16 melanoma 4A5 cells)	viability at 72 h, 100 µM [1]	viability at 72 h, 300 µM [1]	other results
830 µM	OC[C@H]1O[C@@H](Oc2ccc(O)cc2)[C@H](O)[C@@H](O)[C@@H]1O [Arbutin, reference compound]	63 ± 2.3%	94 ± 2.8%	96.2%	106%	32.2 ± 3.4%	22.3 ± 4.3%	92.2%	96%	
8.7 µM	Oc1ccc(O)cc1 [Hydroquinone, reference compound]									inhibition at 3 µM (B16 melanoma 4A5 cells): 37.4 ± 3.7%; inhibition at 10 µM (B16 melanoma 4A5 cells): 59.5 ± 3.7%; inhibition at 30 µM (B16 melanoma 4A5 cells): 76.3 ± 2.1%; viability at 72 h, 3 µM [1]: 94.1%; viability at 72 h, 10 µM [1]: 85.2%; viability at 72 h, 30 µM [1]: 64.3%
2220 µM	CCCCOC1=C(OCC(O)CO)[C@@H]([C@@H](O)CO)OC1=O (stereo partly shown) [compound 4, 2-O-butyl-3-O-(2,3-dihydroxypropyl)-AsA]	30.2 ± 5.1%	58.9 ± 2.7%	93.9%	88.7%	-1.2 ± 0.8%	20.8 ± 10.6%	94.5%	97.4%	
931 µM	CCCCCOC1=C(OCC(O)CO)[C@@H]([C@@H](O)CO)OC1=O (stereo partly shown) [compound 5, 3-O-(2,3-dihydroxypropyl)-2-O-pentyl-AsA]	45.9 ± 1.2%	81.9 ± 3.3%	105%	78.7%	-14 ± 9.7%	29.8 ± 8.1%	118%	107%	
89.1 µM	CCCCCCCOC1=C(OCC(O)CO)[C@@H]([C@@H](O)CO)OC1=O (stereo partly shown) [compound 7, 3-O-(2,3-dihydroxypropyl)-2-O-heptyl-AsA]					52.2 ± 5%		79.7%		inhibition at 3 µM (B16 melanoma 4A5 cells): -4.2 ± 6.3%; inhibition at 10 µM (B16 melanoma 4A5 cells): 3.4 ± 5.2%; inhibition at 30 µM (B16 melanoma 4A5 cells): 20 ± 6.4%; viability at 72 h, 3 µM [1]: 101%; viability at 72 h, 10 µM [1]: 95.4%; viability at 72 h, 30 µM [1]: 91.9%; Inhibition (%) of mushroom tyrosinase (tyrosinase from mushroom; Substrate: L-DOPA, 30 µM): −0.7 ± 3.1%; Inhibition (%) of mushroom tyrosinase (tyrosinase from mushroom; Substrate: L-DOPA, 100 µM): 1.1 ± 4.8%; Inhibition (%) of mushroom tyrosinase (tyrosinase from mushroom; Substrate: L-Tyrosine, 30 µM): −1.7 ± 4.0%; Inhibition (%) of mushroom tyrosinase (tyrosinase from mushroom; Substrate: L-Tyrosine, 100 µM): 1.0 ± 2.4%
68.8 µM	CCCCCCCCOC1=C(OCC(O)CO)[C@@H]([C@@H](O)CO)OC1=O (stereo partly shown) [compound 8, 3-O-(2,3-dihydroxypropyl)-2-O-octyl-AsA]					64.1 ± 8.2%		80%		inhibition at 3 µM (B16 melanoma 4A5 cells): 5.7 ± 6.9%; inhibition at 10 µM (B16 melanoma 4A5 cells): 10.6 ± 4.6%; inhibition at 30 µM (B16 melanoma 4A5 cells): 22.4 ± 4.4%; viability at 72 h, 3 µM [1]: 108%; viability at 72 h, 10 µM [1]: 103%; viability at 72 h, 30 µM [1]: 92.5%; Inhibition (%) of mushroom tyrosinase (tyrosinase from mushroom; Substrate: L-DOPA, 30 µM): 2.4 ± 1.1%; Inhibition (%) of mushroom tyrosinase (tyrosinase from mushroom; Substrate: L-DOPA, 100 µM): 2.3 ± 2.7%; Inhibition (%) of mushroom tyrosinase (tyrosinase from mushroom; Substrate: L-Tyrosine, 30 µM): −0.3 ± 2.3%; Inhibition (%) of mushroom tyrosinase (tyrosinase from mushroom; Substrate: L-Tyrosine, 100 µM): −0.6 ± 4.3%
28.8 µM	CCCCCCCCCOC1=C(OCC(O)CO)[C@@H]([C@@H](O)CO)OC1=O (stereo partly shown) [compound 9, 3-O-(2,3-dihydroxypropyl)-2-O-nonyl-AsA]					91.6 ± 1.2%		58.4%		inhibition at 3 µM (B16 melanoma 4A5 cells): 0.2 ± 4.4%; inhibition at 10 µM (B16 melanoma 4A5 cells): 19.1 ± 1.3%; inhibition at 30 µM (B16 melanoma 4A5 cells): 51.9 ± 4.6%; viability at 72 h, 3 µM [1]: 99.2%; viability at 72 h, 10 µM [1]: 88.9%; viability at 72 h, 30 µM [1]: 77.6%; Inhibition (%) of mushroom tyrosinase (tyrosinase from mushroom; Substrate: L-DOPA, 30 µM): 4.8 ± 6.6%; Inhibition (%) of mushroom tyrosinase (tyrosinase from mushroom; Substrate: L-DOPA, 100 µM): 0.9 ± 6.0%; Inhibition (%) of mushroom tyrosinase (tyrosinase from mushroom; Substrate: L-Tyrosine, 30 µM): 4.0 ± 6.1%; Inhibition (%) of mushroom tyrosinase (tyrosinase from mushroom; Substrate: L-Tyrosine, 100 µM): −1.2 ± 4.5%
13 µM	CCCCCCCCCCOC1=C(OCC(O)CO)[C@@H]([C@@H](O)CO)OC1=O (stereo partly shown) [compound 10, 2-O-decyl-3-O-(2,3-dihydroxypropyl)-AsA]					98 ± 3.7%		27.9%		inhibition at 3 µM (B16 melanoma 4A5 cells): 3.7 ± 7.8%; inhibition at 10 µM (B16 melanoma 4A5 cells): 39.2 ± 4.1%; inhibition at 30 µM (B16 melanoma 4A5 cells): 78.1 ± 4.8%; viability at 72 h, 3 µM [1]: 98.6%; viability at 72 h, 10 µM [1]: 85.9%; viability at 72 h, 30 µM [1]: 73.5%; Inhibition (%) of mushroom tyrosinase (tyrosinase from mushroom; Substrate: L-DOPA, 10 µM): 0.4 ± 1.1%; Inhibition (%) of mushroom tyrosinase (tyrosinase from mushroom; Substrate: L-DOPA, 30 µM): 2.4 ± 2.9%; Inhibition (%) of mushroom tyrosinase (tyrosinase from mushroom; Substrate: L-Tyrosine, 10 µM): 1.3 ± 3.1%; Inhibition (%) of mushroom tyrosinase (tyrosinase from mushroom; Substrate: L-Tyrosine, 30 µM): 0.4 ± 1.7%
473 µM	CCCCOC1=C(OCC(O)CO)C(=O)O[C@@H]1[C@@H](O)CO (stereo partly shown) [compound 18, 3-O-butyl-2-O-(2,3-dihydroxypropyl)-AsA]	68 ± 2.1%	84.1 ± 1.4%	78.1%	70.6%	0.2 ± 4.4%	36.3 ± 2.8%	99.8%	89.1%	
283 µM	CCCCCOC1=C(OCC(O)CO)C(=O)O[C@@H]1[C@@H](O)CO (stereo partly shown) [compound 19, 2-O-(2,3-dihydroxypropyl)-3-O-pentyl-AsA]	83.1 ± 1.4%	97.1 ± 0.9%	54.7%	22.5%	14 ± 4.4%	53 ± 1.1%	86.7%	73.4%	

Source: publication PMC5979531, “Structural Requirements of Alkylglyceryl-L-Ascorbic Acid Derivatives for Melanogenesis Inhibitory Activity” (International Journal of Molecular Sciences, 2018)
